Assays:
human GluR1B receptor [1] = experiment: AMPA-binding assay with membranes of transfected COS-1 cells; details: 10 nM [3H]-AMPA; membrane preparations from human GluR1B receptor-producing COS cells; non-specific binding with 1 mM L-glutamate; FIG. 3
Procedure: (§1) Transfected cells in the frozen state were resuspended in ice-cold distilled water using a hand homogenizer, sonicated for 5 seconds, and then centrifuged for 20 minutes at 50,000 g. The supernatant was discarded and the membrane pellet stored frozen at −70° C.
(§2) COS cell membrane pellets were suspended in ice cold 5 mM Tris-HCI (pH 7.55, 5C) and centrifuged again at 50,000 g for 10 minutes in order to remove endogenous glutamate that would compete for binding. Pellets were resuspended in ice cold 50 mM Tris-HCl (pH 7.55) buffer and the resultant membrane preparation was used as tissue source for binding experiments described below. Proteins were determined using the Pierce Reagent with BSA as standard.
Binding assays were then performed, using an amount of COS-derived membrane equivalent to from 25-100 ug as judged by protein determination and selected radiolabelled ligand. In particular, for AMPA-binding assays, incubation mixtures consisted of 25-100 ug tissue protein and D,L-alpha-[5-methyl-3H]amino-3-hydroxy-5-methylisoxazole-4-propionic acid (3H-AMPA, 27.6Ci/mmole, 10 nM final) with 0.1 M KSCN and 2.5 mM CaCl2 in the 1 ml final volume. Non-specific binding was determined in the presence of 1 mM L-glutamate. […] Pellets were washed twice in 4 ml of the cold incubation buffer, then 5 ml of Beckman Ready-Protein Plus scintillation cocktail was added, for counting.

human GluR1B receptor [2] = experiment: NMDA binding to membranes of transfected COS-1 cells; details: membrane preparations from human GluR1B receptor-producing COS cells
Procedure: as §1, §2

human GluR1B receptor [3] = experiment: kainate-binding assay with membranes of transfected COS-1 cells; details: [vinylidene-3H] kainic acid 5 nM; membrane preparations from human GluR1B receptor-producing COS cells
Procedure: as §1, §2
For kainate-binding assays, incubation mixtures consisted of 25-100 ug tissue protein and [vinylidene-3H] kainic acid (58Ci/mmole, 5 nM final) in the cold incubation buffer, 1 ml final volume. Non-specific binding was determined in the presence of 1 mM L-glutamate. Samples were incubated as for the AMPA-binding assays, and bound and free ligand were separated by rapid filtration using a Brandel cell harvester and GF/B filters pre-soaked in ice-cold 0.3% polyethyleneimine. Filters were washed twice in 6 ml of the cold incubation buffer, then placed in scintillation vials with 5 ml of Beckman Ready-Protein Plus scintillation cocktail for counting.

## [3H]Cc1onc(O)c1CC(N)C(=O)O (racemic) [[3H]-AMPA, D,L-alpha-[5-methyl-3H]amino-3-hydroxy-5-methylisoxazole-4-propionic acid]
Human GluR1B receptor [1]
  specific binding: 100-150 fmole/mg protein

## CN[C@H](CC(=O)O)C(=O)O [NMDA, N-methyl-D-aspartate]
Human GluR1B receptor [2]
  binding of NMDA: little or no demonstrable binding

## C=C(C)[C@H]1CN[C@H](C(=O)O)[C@H]1CC(=O)O [kainate, [vinylidene-3H] kainic acid]
Human GluR1B receptor [3]
  binding of kainate: little or no demonstrable binding

Reference: patent US6406868B1, “AMPA-binding human GluR1 receptors” (priority 1992, dated 2002)
